{
  "source": "ChEMBL document CHEMBL2203036",
  "about": "“Discovery of 1-[2-(2,4-dimethylphenylsulfanyl)phenyl]piperazine (Lu AA21004): a novel multimodal compound for the treatment of major depressive disorder” (J Med Chem, 2011)",
  "key": {"Rattus norvegicus [1]": {"test_system": "Rattus norvegicus", "experiment": "Target occupancy at SERT in Harlan rat at 10 mg/kg, sc administered QD for 3 days relative to vehicle-treated control", "assay_type": "functional", "settings": "route subcutaneous"}, "[2]": {"target": "5-hydroxytryptamine receptor 7 (Homo sapiens, UniProt P34969)", "sequence (P34969 whole entry)": "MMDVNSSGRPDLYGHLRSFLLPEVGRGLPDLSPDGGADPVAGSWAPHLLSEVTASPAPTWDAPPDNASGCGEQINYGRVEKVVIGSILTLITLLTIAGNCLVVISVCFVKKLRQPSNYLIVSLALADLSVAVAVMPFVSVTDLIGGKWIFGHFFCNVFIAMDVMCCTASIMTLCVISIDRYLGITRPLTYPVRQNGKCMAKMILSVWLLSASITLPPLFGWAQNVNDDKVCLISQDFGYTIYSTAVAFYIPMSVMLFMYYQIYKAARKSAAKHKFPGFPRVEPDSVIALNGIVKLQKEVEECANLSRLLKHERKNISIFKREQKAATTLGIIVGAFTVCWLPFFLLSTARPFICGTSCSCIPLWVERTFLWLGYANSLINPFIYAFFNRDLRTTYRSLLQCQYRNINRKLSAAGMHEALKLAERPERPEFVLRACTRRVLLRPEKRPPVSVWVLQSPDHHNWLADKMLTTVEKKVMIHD", "experiment": "Antagonist activity at human 5HT7 receptor expressed in HEK-CNG cells assessed as effect on cAMP production by fluorescence based assay", "assay_type": "functional, cell-based"}, "[3]": {"target": "5-hydroxytryptamine receptor 5A (Homo sapiens, UniProt P47898)", "sequence (P47898 whole entry)": "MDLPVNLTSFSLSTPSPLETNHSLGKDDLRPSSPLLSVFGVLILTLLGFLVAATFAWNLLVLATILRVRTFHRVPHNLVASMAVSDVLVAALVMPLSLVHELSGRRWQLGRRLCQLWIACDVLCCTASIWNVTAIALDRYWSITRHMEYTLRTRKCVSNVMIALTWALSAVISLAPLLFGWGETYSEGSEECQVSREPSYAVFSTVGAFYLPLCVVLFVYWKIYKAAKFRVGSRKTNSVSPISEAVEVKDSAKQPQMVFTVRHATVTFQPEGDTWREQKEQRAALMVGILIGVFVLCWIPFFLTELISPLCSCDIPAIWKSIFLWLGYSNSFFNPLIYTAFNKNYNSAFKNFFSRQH", "experiment": "Binding affinity to human 5HT5A receptor"}, "[4]": {"target": "5-hydroxytryptamine receptor 2C (Homo sapiens, UniProt P28335)", "sequence (P28335 whole entry)": "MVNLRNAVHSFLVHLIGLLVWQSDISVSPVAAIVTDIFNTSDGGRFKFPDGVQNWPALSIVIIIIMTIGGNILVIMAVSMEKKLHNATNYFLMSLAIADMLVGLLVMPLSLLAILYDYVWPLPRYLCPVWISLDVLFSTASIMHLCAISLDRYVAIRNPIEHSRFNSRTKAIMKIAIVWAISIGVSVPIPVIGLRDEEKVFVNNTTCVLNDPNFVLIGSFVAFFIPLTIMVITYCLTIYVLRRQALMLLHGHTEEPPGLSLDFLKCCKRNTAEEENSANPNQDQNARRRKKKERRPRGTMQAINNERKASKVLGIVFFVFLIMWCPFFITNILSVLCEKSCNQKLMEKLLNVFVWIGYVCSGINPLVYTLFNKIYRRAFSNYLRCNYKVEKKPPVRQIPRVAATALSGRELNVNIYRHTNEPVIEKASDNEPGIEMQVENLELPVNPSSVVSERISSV", "experiment": "Binding affinity to human 5HT2C receptor"}, "[5]": {"target": "Beta-2 adrenergic receptor (Homo sapiens, UniProt P07550)", "sequence (P07550 whole entry)": "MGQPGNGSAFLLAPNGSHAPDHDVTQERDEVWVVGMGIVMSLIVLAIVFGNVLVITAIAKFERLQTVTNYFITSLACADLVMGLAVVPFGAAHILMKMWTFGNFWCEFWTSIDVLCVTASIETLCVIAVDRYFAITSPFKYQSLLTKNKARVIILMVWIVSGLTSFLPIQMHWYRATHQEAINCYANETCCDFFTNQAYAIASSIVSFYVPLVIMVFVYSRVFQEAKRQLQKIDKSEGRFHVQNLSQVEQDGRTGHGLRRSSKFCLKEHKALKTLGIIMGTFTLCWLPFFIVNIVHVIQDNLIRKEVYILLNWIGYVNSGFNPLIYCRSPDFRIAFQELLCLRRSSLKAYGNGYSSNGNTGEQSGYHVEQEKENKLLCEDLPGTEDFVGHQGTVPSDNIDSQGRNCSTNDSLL", "experiment": "Binding affinity to human beta 2 adrenergic receptor"}, "Histamine H1 receptor": {"target": "Histamine H1 receptor (Homo sapiens, UniProt P35367)", "experiment": "Binding affinity to human histamine H1 receptor"}, "[6]": {"target": "Sodium-dependent serotonin transporter (Homo sapiens, UniProt P31645)", "sequence (P31645 whole entry)": "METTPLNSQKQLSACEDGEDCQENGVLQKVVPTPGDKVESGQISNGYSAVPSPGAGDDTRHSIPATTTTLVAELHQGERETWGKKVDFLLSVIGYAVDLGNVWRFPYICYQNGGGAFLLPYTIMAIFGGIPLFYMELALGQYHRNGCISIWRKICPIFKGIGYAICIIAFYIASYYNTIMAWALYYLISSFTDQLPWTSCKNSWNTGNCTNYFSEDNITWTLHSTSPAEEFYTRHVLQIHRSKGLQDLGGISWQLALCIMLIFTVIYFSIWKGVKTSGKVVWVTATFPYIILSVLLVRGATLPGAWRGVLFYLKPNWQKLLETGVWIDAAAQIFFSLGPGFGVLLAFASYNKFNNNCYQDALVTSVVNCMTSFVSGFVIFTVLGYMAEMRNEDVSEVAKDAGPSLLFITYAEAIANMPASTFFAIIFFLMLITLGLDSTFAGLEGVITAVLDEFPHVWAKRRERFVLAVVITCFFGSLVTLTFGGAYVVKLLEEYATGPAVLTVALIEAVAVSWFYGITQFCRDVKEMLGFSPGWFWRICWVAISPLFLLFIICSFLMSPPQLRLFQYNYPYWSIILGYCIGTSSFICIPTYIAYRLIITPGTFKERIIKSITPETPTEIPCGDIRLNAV", "experiment": "Binding affinity to human SERT"}, "[7]": {"target": "T1, 5-hydroxytryptamine receptor 3A (Homo sapiens, UniProt P46098)", "T1 sequence (P46098 whole entry)": "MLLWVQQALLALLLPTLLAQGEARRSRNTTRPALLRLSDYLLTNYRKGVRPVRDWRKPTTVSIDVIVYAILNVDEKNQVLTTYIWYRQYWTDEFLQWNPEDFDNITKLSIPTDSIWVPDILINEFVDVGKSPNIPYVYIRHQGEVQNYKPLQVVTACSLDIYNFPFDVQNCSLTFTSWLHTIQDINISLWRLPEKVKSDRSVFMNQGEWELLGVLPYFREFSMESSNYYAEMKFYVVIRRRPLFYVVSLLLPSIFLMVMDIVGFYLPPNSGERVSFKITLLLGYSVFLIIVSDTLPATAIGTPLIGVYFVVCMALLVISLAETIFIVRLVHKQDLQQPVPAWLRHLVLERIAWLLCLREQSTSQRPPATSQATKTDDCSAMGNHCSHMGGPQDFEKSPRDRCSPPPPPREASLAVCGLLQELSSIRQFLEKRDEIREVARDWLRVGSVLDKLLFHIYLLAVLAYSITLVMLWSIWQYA", "experiment": "Antagonist activity at human 5HT3A receptor expressed in xenopus oocytes assessed as inhibition of 5HT-induced effect by electrophysiological method", "assay_type": "functional, cell-based, Oocyte"}, "[8]": {"experiment": "Oral bioavailability in rat at 2 mg/kg", "assay_type": "ADME, organism-based", "settings": "in vivo"}, "Cytochrome P450 2C9": {"target": "Cytochrome P450 2C9 (Homo sapiens, UniProt P11712)", "experiment": "Inhibition of human recombinant CYP2C9 using dibenzylfluorescein after 45 mins by fluorescence spectrophotometric analysis", "assay_type": "ADME"}, "Cytochrome P450 1A2": {"target": "T2, Cytochrome P450 1A2 (Homo sapiens, UniProt P05177)", "T2 sequence (P05177 whole entry)": "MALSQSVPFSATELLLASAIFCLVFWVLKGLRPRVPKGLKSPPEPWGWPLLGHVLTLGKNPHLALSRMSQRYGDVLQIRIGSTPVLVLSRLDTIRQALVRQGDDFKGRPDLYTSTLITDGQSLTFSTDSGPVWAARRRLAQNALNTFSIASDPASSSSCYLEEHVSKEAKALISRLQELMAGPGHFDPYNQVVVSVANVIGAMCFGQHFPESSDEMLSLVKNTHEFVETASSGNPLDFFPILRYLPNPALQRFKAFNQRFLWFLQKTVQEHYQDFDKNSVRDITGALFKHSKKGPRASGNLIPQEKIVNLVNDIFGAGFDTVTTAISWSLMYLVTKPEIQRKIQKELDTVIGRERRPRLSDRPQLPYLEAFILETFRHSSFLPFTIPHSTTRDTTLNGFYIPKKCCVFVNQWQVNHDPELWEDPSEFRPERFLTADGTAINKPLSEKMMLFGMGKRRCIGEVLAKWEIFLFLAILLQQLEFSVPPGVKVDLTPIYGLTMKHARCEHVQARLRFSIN", "experiment": "Inhibition of human recombinant CYP1A2 using 7-ethoxy-3-cyanocoumarin after 28 mins by fluorescence spectrophotometric analysis", "assay_type": "ADME"}, "Liver microsomes": {"test_system": "Liver microsomes", "experiment": "Intrinsic clearance in human liver microsomes at 1 uM after 60 mins by LC-MS/MS analysis", "assay_type": "ADME, Microsome", "settings": "1 h"}, "[9]": {"experiment": "Inhibition of NET-mediated [3H]NE in rat synaptosomes by scintillation counting", "assay_type": "subcellular, Brain"}, "[10]": {"target": "Sodium-dependent dopamine transporter (Rattus norvegicus, UniProt P23977)", "sequence (P23977 whole entry)": "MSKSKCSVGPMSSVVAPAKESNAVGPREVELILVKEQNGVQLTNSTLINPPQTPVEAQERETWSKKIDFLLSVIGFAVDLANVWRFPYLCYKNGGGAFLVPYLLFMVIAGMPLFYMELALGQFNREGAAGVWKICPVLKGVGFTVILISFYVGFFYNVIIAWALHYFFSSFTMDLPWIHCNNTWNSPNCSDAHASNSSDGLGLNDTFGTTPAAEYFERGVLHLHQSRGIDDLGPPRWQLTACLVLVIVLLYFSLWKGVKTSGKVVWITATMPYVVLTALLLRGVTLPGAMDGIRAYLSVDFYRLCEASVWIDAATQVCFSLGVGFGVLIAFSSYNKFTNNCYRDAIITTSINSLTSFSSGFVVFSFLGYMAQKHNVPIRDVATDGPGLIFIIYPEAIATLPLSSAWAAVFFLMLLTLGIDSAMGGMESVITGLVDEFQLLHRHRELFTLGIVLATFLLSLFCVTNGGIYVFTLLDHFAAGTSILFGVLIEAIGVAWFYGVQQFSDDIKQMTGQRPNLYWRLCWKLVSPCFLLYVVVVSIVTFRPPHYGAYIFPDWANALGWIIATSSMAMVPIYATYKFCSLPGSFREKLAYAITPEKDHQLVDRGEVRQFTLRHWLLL", "experiment": "Inhibition of DAT-mediated [3H]DA in rat synaptosomes by scintillation counting", "assay_type": "subcellular, Brain"}, "[11]": {"target": "T1, 5-hydroxytryptamine receptor 3A", "experiment": "Displacement of [3H]granisetron from human 5HT3A receptor expressed in HEK293 cells by filter binding assay", "assay_type": "cell-based"}, "[12]": {"target": "T3, 5-hydroxytryptamine receptor 1B (Homo sapiens, UniProt P28222)", "T3 sequence (P28222 whole entry)": "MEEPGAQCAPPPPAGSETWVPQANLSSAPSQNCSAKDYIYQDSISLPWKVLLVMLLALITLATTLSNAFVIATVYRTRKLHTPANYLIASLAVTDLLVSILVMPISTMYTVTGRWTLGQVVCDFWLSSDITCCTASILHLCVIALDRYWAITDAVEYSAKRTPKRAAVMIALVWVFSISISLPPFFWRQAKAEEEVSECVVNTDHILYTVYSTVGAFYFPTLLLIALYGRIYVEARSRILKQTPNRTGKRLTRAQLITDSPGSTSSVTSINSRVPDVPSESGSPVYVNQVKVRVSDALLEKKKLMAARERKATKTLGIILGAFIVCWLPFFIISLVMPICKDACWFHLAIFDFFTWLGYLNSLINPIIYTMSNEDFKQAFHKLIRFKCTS", "experiment": "Binding affinity at human 5HT1B receptor"}, "[13]": {"target": "T3, 5-hydroxytryptamine receptor 1B", "experiment": "Partial agonist activity at human 5HT1B receptor expressed in CHO cells assessed as [35S]GTPgammaS binding", "assay_type": "functional, cell-based"}, "[14]": {"target": "5-hydroxytryptamine receptor 1A (Rattus norvegicus) (UniProt P19327)", "sequence (P19327 whole entry, looked up)": "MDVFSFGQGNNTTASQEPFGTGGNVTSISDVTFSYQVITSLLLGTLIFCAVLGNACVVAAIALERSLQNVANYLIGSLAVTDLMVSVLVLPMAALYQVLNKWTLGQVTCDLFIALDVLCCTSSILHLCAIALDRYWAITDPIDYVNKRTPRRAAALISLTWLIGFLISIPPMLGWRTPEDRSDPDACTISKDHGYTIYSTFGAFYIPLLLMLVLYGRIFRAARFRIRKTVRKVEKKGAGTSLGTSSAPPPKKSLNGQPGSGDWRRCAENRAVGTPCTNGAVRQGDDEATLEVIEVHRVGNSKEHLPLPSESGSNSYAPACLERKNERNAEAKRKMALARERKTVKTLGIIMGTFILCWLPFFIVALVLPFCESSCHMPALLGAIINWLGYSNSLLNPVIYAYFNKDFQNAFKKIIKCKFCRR", "experiment": "Binding affinity to rat 5HT1A receptor"}, "[15]": {"target": "Melanocortin receptor 4 (Homo sapiens) (UniProt P32245)", "sequence (P32245 whole entry)": "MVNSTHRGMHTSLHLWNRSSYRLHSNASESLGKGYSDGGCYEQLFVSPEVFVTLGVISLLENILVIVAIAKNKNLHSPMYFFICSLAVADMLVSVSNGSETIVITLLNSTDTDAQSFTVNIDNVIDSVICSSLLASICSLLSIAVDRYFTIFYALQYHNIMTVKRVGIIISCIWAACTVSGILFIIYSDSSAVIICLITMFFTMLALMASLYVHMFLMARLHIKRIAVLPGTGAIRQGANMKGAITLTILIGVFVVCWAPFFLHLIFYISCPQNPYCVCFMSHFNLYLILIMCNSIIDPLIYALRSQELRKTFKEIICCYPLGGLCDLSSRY", "experiment": "Inhibition of human MC4 receptor at 1 uM"}, "[16]": {"target": "T3, 5-hydroxytryptamine receptor 1B", "experiment": "Inhibition of human 5HT1B receptor at 1 uM"}, "[17]": {"target": "5-hydroxytryptamine receptor 3A (Rattus norvegicus) (UniProt P35563)", "sequence (P35563 whole entry)": "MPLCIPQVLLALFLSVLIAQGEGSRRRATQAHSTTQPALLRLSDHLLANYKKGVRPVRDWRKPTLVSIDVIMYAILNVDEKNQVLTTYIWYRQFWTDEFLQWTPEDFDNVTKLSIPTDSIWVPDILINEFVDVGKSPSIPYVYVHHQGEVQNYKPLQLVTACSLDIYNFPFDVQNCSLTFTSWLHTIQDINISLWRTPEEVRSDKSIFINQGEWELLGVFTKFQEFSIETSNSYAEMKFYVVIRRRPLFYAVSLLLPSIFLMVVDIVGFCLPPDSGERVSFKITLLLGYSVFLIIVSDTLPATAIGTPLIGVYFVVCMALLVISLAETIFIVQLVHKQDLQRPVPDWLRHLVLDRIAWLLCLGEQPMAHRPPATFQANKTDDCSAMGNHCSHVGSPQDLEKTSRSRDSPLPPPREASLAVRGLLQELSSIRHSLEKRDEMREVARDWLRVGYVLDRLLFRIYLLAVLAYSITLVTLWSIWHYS", "experiment": "Agonist activity at rat 5HT3A receptor expressed in xenopus oocytes at 0.1 to 100000 nM by electrophysiological method", "settings": "Oocyte"}, "[18]": {"target": "T3, 5-hydroxytryptamine receptor 1B", "experiment": "Partial agonist activity at human 5HT1B receptor expressed in CHO cells assessed as [35S]GTPgammaS binding relative to 5HT"}, "[19]": {"target": "T4, 5-hydroxytryptamine receptor 3A (Homo sapiens) (UniProt P46098)", "T4 sequence (whole entry)": "T1 sequence (P46098 whole entry)", "experiment": "Agonist activity at human 5HT3A receptor expressed in xenopus oocytes by electrophysiological method in presence of ondansetron", "settings": "Oocyte"}, "Rattus norvegicus [20]": {"test_system": "Rattus norvegicus", "experiment": "Antidepression activity in Harlan rat assessed as increase in extracellular 5HT level in ventral hippocampus region at 2.5 to 10 mg/kg, sc by microdialysis method", "settings": "TDE = time-dependent effect"}, "Rattus norvegicus [21]": {"test_system": "Rattus norvegicus", "experiment": "Antidepression activity in sc dosed Harlan rat assessed as increase in extracellular 5HT level in ventral hippocampus region measured up to 180 mins by microdialysis method"}, "Rattus norvegicus [22]": {"test_system": "Rattus norvegicus", "experiment": "Antidepression activity in Harlan rat assessed as increase in extracellular 5HT level in ventral hippocampus region at 2.5 mg/kg, sc measured from 60 to 120 mins by microdialysis method"}, "Rattus norvegicus [23]": {"test_system": "Rattus norvegicus", "experiment": "Antidepression activity in Harlan rat assessed as increase in extracellular 5HT level in ventral hippocampus region at 5 to 10 mg/kg, sc measured from 40 to 180 mins by microdialysis method"}},
  "note": "pEC50, pIC50, pKi: −log10 of the molar value. The source made the active and inactive calls. The rule behind the calls is not given here.",
  "data": [
    {"smiles": "Cc1ccc(Sc2ccccc2N2CCNCC2)c(C)c1.Cl", "values": [
      {"measurement": "Occ", "setting": "Rattus norvegicus [1]", "result": 57, "unit": "%"},
      {"measurement": "pKi", "setting": "[2]", "result": 6.35},
      {"measurement": "pKi", "setting": "[3]", "result": 6.66},
      {"measurement": "pKi", "setting": "[4]", "result": 6.74},
      {"measurement": "pKi", "setting": "[5]", "result": 6.25},
      {"measurement": "pKi", "setting": "Histamine H1 receptor", "result": 6.74},
      {"measurement": "pKi", "setting": "[6]", "result": 8.80},
      {"measurement": "pIC50", "setting": "[7]", "result": 7.92},
      {"measurement": "bioavailability", "setting": "[8]", "result": 16, "unit": "%"},
      {"measurement": "pIC50", "setting": "Cytochrome P450 2C9", "result": 4.41},
      {"measurement": "pIC50", "setting": "Cytochrome P450 1A2", "result": 4.40},
      {"measurement": "CLH", "setting": "Liver microsomes", "result": 0.5, "unit": "L/min"},
      {"measurement": "pIC50", "setting": "[9]", "result": 6.85},
      {"measurement": "pIC50", "setting": "[10]", "result": 6.05},
      {"measurement": "pKi", "setting": "[11]", "result": 7.64},
      {"measurement": "pKi", "setting": "[12]", "result": 7.48},
      {"measurement": "pEC50", "setting": "[13]", "result": 6.92},
      {"measurement": "pKi", "setting": "[14]", "result": 6.64},
      {"measurement": "inhibition", "setting": "[15]", "result": 51, "unit": "%"},
      {"measurement": "inhibition", "setting": "[16]", "result": 100, "unit": "%"},
      {"measurement": "Activity", "setting": "[17]", "result": "inactive"},
      {"measurement": "Efficacy", "setting": "[18]", "result": 55, "unit": "%"},
      {"measurement": "Activity", "setting": "[19]", "result": "inactive"},
      {"measurement": "Activity", "setting": "Rattus norvegicus [20]", "result": "tde"},
      {"measurement": "Activity", "setting": "Rattus norvegicus [21]", "result": "Dose-dependent effect"},
      {"measurement": "Activity", "setting": "Rattus norvegicus [22]", "result": "Active"},
      {"measurement": "Activity", "setting": "Rattus norvegicus [23]", "result": "Active"}
    ]}
  ]
}
